Data on 6 compounds can be found in patent US20250320228A1, “PYRIDO[3,2-D]PYRIMIDINES AS HPK1 INHIBITORS” (Merck Patent GmbH, priority 2022, published 2025).

Assay [1] deals with full-length human HPK1 (MAP4K1) (Homo sapiens (Human), UniProt Q92918). The experiment in a line: HPK1 kinase assay (biochemical, ADP-Glo). Particulars: GST-HPK1 3.2 nM, 10 μM ATP, MBP substrate, ADP-Glo; read-out: HPK1 enzymatic IC50. A digest of the protocol: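 GST-tagged full-length human HPK1 from Sf21 baculovirus cells (3.2 nM in enzyme mix; 50 mM HEPES pH 7.5, 10 mM MgCl2) was preincubated 15 min at RT with compound. Reaction was started with Start-Mix (10 μM ATP, 3.235 μM MBP) and run 120 min. ADP was read by ADP-Glo luminescence; IC50 came from 10-point % inhibition.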
Background: In ADP-Glo the light output rises with the ADP produced.

In the next assay the test system is HPK1 pSLP76 (Ser376). In words: Cellular assay phospho-SLP-76 (Ser376). It counts as cell-based, human. Particulars: SLP76 Ser376 phosphorylation after αCD3/αCD28 stimulation; Jurkat (human) or EL-4 (mouse) cells, table does not say which; read-out: HPK1 pSLP76 IC50. In short, it runs like this:
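Jurkat (human) and EL-4 (mouse) cells preincubated 60 min with compound, then stimulated with αCD3/αCD28 Dynabeads at 37 °C (Jurkat 15 min; EL-4 30 min). SLP76 Ser376 phosphorylation in lysate read by AlphaLISA SureFire (Jurkat) or HTRF (EL-4, 19 h); IC50 from 10-point dilutions.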

Chain of full-length human HPK1 (MAP4K1) (Q92918 whole entry): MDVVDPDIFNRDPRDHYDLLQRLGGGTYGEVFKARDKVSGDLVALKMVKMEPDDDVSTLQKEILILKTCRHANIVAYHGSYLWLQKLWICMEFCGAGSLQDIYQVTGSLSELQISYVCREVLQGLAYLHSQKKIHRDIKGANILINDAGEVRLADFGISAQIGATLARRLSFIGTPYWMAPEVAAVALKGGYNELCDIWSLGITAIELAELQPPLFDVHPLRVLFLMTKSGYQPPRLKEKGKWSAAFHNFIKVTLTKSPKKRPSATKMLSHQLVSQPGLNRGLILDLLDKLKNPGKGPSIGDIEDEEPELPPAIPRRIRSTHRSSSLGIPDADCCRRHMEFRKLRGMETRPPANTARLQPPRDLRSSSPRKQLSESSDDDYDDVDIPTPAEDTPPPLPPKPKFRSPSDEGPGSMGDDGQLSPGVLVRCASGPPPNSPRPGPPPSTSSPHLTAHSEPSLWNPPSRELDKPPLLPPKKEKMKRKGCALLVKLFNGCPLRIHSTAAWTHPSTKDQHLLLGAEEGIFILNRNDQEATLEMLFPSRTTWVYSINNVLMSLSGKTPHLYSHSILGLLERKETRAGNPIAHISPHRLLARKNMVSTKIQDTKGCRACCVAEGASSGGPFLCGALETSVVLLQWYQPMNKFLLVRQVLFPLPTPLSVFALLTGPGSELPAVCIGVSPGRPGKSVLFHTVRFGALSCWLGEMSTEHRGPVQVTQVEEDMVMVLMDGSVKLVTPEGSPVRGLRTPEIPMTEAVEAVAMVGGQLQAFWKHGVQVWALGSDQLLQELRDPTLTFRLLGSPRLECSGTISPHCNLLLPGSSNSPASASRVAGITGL

For `COCCOc1ccc(-c2cc(C(N)=O)c3ncnc(N[C@H]4CCCNC4)c3n2)cn1` [Example 55, (S)-6-(6-(2-methoxyethoxy)pyridin-3-yl)-4-(piperidin-3-ylamino)pyrido[3,2-d]pyrimidine-8-carboxamide], the IC50 (in general, the midpoint of a concentration-inhibition curve) in assay [1] was less than 100 nM; with HPK1 pSLP76 (Ser376), more than 1000 nM.
Regarding `NC(=O)c1cc(C2=CCC(N3CCOCC3)CC2)nc2c(N[C@H]3CCCNC3)ncnc12` (stereo partly drawn) [Example 17, 6-(4-morpholinocyclohex-1-en-1-yl)-4-(((S)-piperidin-3-yl)amino)pyrido[3,2-d]pyrimidine-8-carboxamide], the IC50 in assay [1] was less than 100 nM; in the assay with HPK1 pSLP76 (Ser376), 500 to 1000 nM.
Consider `CC(C)(O)COc1ccc(-c2cc(C(N)=O)c3ncnc(N[C@@H]4CNCC[C@H]4F)c3n2)cc1` [Example 42, 4-(((3R,4R)-4-fluoropiperidin-3-yl)amino)-6-(4-(2-hydroxy-2-methylpropoxy)phenyl)pyrido[3,2-d]pyrimidine-8-carboxamide], for which the IC50 in assay [1] was less than 100 nM; with HPK1 pSLP76 (Ser376), less than 500 nM.
As to `NC(=O)c1cc(C2=CCN(C(=O)C3CC3)CC2)nc2c(N[C@H]3CCCNC3)ncnc12` [Example 75, 6-(1-cyclopropanecarbonyl-1,2,3,6-tetrahydropyridin-4-yl)-4-{[(3S)-piperidin-3-yl]amino}pyrido[3,2-d]pyrimidine-8-carboxamide], the IC50 in assay [1] was less than 100 nM; with HPK1 pSLP76 (Ser376), 500 to 1000 nM.
For `C[C@@H](c1ccc(-c2cc(C(N)=O)c3ncnc(N[C@H]4CCCNC4)c3n2)cc1)N1CCOCC1` (single isomer, unassigned) [Example 53] the same measures were less than 100 nM and 500 to 1000 nM.
For the compound `COCCOc1ccc(-c2cc(C(N)=O)c3ncnc(N[C@@H]4CNCC[C@H]4F)c3n2)cc1` [Example 48, 4-(((3R,4R)-4-fluoropiperidin-3-yl)amino)-6-(4-(2-methoxyethoxy)phenyl)pyrido[3,2-d]pyrimidine-8-carboxamide], the IC50 is less than 100 nM in assay [1] and less than 500 nM in the assay on HPK1 pSLP76 (Ser376).
